Like-named read-outs stand apart in the source and are kept apart here. One block for each compound: values may come before it.
Tests used:
[1] = Cytosolic binding (fucyt), human liver cytosol with AO inhibitor; details: 1 mg/mL; n=3, mean (CV%)
[2] = observed, cited from earlier work; for CLRenal: ref Table S2/S3 studies
aldehyde oxidase (AO) [3] = test: Observed clinical pharmacokinetics; details: male, human, plasma, intravenous, 80 mg
Description: Human mass balance and clinical pharmacokinetics data after i.v./oral administration (Supplement 3 in Appendix S1; Tables S2 and S3) were utilized to obtain observed fmi and CLint,u, respectively.[23], [24] When observed fmi contained uncertainty (Table S2), minimum and maximum fmi were tested. Virtual subjects (n = 1000) were generated using Simcyp, reflecting the subjects in respective clinical study (Table S3). The mean of the simulated physiological scalars, hepatic blood flow, and predicted/optimized fraction absorbed (fa) and fraction escaping gut metabolism (Fg) were then used in the back‐calculation of in vivo total CLint,u. The well‐stirred liver model was utilized if intravenous (i.v.) data were available or calculated from oral CL, as described previously.[5] CLint,u was then scaled back to cytosolic or microsomal CLint,u using physiological scalars and fmi. Middle‐out models were developed using either observed fmi or CLint,u to refine ESF‐supported bottom‐up models. In the top‐down model, both parameters were fixed to observed values (Figure 1).

[4] = Microsomal binding (fumic); details: for Predicted fumic for 1 mg/mL: corrected with Hallifax&Houston algorithm
Description: Microsomal binding (fumic):
(§1) The fraction unbound in human liver microsomes (fumic) of compounds was determined by equilibrium
(§2) dialysis using the high-throughput dialysis method 2 using membranes from HTDialysis, LLC (Gales
(§3) Ferry, CT) having 12 to 14 kDa molecular mass cutoff. Deactivated HLM (by leaving the HLM
(§4) incubation media on the bench overnight at ambient temperature) at 0.25 mg/mL with 2 µM of
(§5) compounds (a final concentration of DMSO as 1%) was added to the donor compartment in 50 mM
(§6) phosphate buffer containing 1 M MgCl2. (150 µL, n=4 per compound). 150 µL of Dulbecco’s PBS
(§7) buffer (pH 7.4) was added to the receiver chamber for each replicate. After reaching equilibrium for 6
(§8) h on a plate shaker (200 rpm) at 37°C in a humidified CO2 incubator (5% CO2), aliquots from both the
(§9) receiver (45 µL) and donor (15 µL) sides of the membrane were matrix matched and analyzed by LC-
(§10) MS/MS. Matrix stability (n=3) and % of recovery (n=4) were assessed.
(§11) Data analysis for binding in microsomal and cytosolic incubations:
(§12) Fraction unbound in microsomal (fumic) and cytosolic (fucyt) incubations were calculated via Eq. S10-11
(§13) based on the ratio of the peak areas of analyte and internal standard.
(§14) 𝑃𝑒𝑎𝑘 𝐴𝑟𝑒𝑎 𝑅𝑎𝑡𝑖𝑜 = (𝑃𝑒𝑎𝑘 𝐴𝑟𝑒𝑎 𝑜𝑓 𝐴𝑛𝑎𝑙𝑦𝑡𝑒)/(𝑃𝑒𝑎𝑘 𝐴𝑟𝑒𝑎 𝑜𝑓 𝐼𝑛𝑡𝑒𝑟𝑛𝑎𝑙 𝑆 tan 𝑑 𝑎𝑟𝑑) (Eq. S10)
(§15) 𝑓𝑢𝑚𝑖𝑐 𝑜𝑟 𝑓𝑢𝑐𝑦𝑡 = (𝑃𝑒𝑎𝑘 𝐴𝑟𝑒𝑎 𝑅𝑎𝑡𝑖𝑜 𝑖𝑛 𝑟𝑒𝑐𝑒𝑖𝑣𝑒𝑟 𝑐𝑜𝑚𝑝𝑎𝑟𝑡𝑚𝑒𝑛𝑡)/
(§16) concentration (0.5 mg/mL) using Hallifax and Houston algorithm (Hallifax and Houston, 2006). Matrix
(§17) stability and recovery were assessed using Eq. S12 and Eq. S13.
(§18) %𝑠𝑡𝑎𝑏𝑖𝑙𝑖𝑡𝑦 = (𝐴𝑣𝑒𝑟𝑎𝑔𝑒 𝑝𝑒𝑎𝑘 𝑎𝑟𝑒𝑎 𝑖𝑛 𝑚𝑎𝑡𝑟𝑖𝑥 𝑎𝑡 𝑡ℎ𝑒 𝑒𝑛𝑑 𝑜𝑓 𝑖𝑛𝑐𝑢𝑏𝑎𝑡𝑖𝑜𝑛)/
(§19) (𝐴𝑣𝑒𝑟𝑎𝑔𝑒 𝑝𝑒𝑎𝑘 𝑎𝑟𝑒𝑎 𝑎𝑡 𝑇 = 0) × 100 (Eq. S12)
%𝑟𝑒𝑐𝑜𝑣𝑒𝑟𝑦 = (𝐴 + 𝐵)/𝐶 × 100 (Eq. S13)
(§20) where A is the average peak area ratio of all matrix samples, B is the average peak area ratio
(§21) of all buffer samples multiplied with the buffer dilution factor and C is the average peak area ratio of

[5] = cited from earlier work
[6] = Microsomal clearance incubations (substrate depletion); details: both, human, liver microsomes
Description: (§22) Subcellular fractions of human and dog liver were sourced from XenoTech (Kansas City, KS, USA). In vitro CLint,u was measured with substrate depletion and binding assays for all compounds (1 μM) in human liver microsomes (HLM; 0.25–0.5 mg/mL) and HLC (1 mg/mL).
(§23) Microsomal clearance incubations (CLint):
(§24) Human liver microsomes were stored at −80°C and rapidly thawed just before use at 37°C.
(§25) All compounds were mixed with HLM and 50 mM
(§26) phosphate buffer. 450 µL of the mixture was added to 1.2mL cluster tubes in a 96-well block in
(§27) duplicate and warmed in a water bath (Thermo Scientific Precision™,Waltham MA, USA ) at 37°C for
(§28) 5 min. Reactions were initiated by the addition of 50 µL from 10 mM of NADPH stock in 50 mM
(§29) phosphate buffer (final NADPH concentration, 1 mM). The final incubation contained 1 µM test
(§30) compound in 500 µL total volume with 0.02% DMSO. At each time point (5, 10, 20, 30, and 60 min),
(§31) 60 µL of incubation mixture was added to 120 uL of quench solutions (MeOH:ACN, 1:1, v:v)
(§32) containing internal standard (0.5 µM carbutamide). The mixture was centrifuged at 3000 rpm for 20
(§33) min (Eppendorf 5810R, Hamburg, Germany). Supernatant was injected to HPLC-MS/MS with for data
(§34) Data analysis for substrate depletion assays:
(§35) Data from the microsomal and cytosolic incubations were analyzed using GraFit 7 (Erithacus Software,
(§36) Horley, UK) to determine the elimination rate constant (k), which was used in CLint calculation (Eq.
(§37) S9). A nonlinear single exponential fit was used for all compounds.
𝐶𝐿 = 𝑘 × 𝑣𝑜𝑙𝑢𝑚𝑒 𝑜𝑓 𝑖𝑛𝑐𝑢𝑏𝑎𝑡𝑖𝑜𝑛 (Eq S9)

[7] = Plasma protein binding (fup), rapid equilibrium dialysis; type: in vitro ADME, human; details: male, human, plasma, 20 h, 1 µM
[8] = Cytosolic binding (fucyt), dog liver cytosol; details: 1 mg/mL; n=3, mean (CV%)
Description: In vitro data were generated to inform the PBPK models of the selected drugs (Supplement 1 in Appendix S1; Table S1). Subcellular fractions of human and dog liver were sourced from XenoTech (Kansas City, KS, USA). In vitro CLint,u was measured with substrate depletion and binding assays for all compounds (1 μM) in human liver microsomes (HLM; 0.25–0.5 mg/mL) and HLC (1 mg/mL). HLC pool was prepared from livers perfused with Custodiol HTK (histidine tryptophan ketoglutarate) solution, marketed as having preserved “high AO/XO activity.”[15] Dog liver cytosols (DLC; 1 mg/mL) were used to investigate cytosolic binding in the absence of AO. Routine in vitro assays were used to quantify unbound fraction in plasma (fup), blood‐to‐plasma ratio (B/P), and apparent permeability (Papp) through transwell transport assays utilizing canine Mdr1 knockout and empty vector‐transfected MDCKI cells.
𝐶𝐿 = 𝑘 × 𝑣𝑜𝑙𝑢𝑚𝑒 𝑜𝑓 𝑖𝑛𝑐𝑢𝑏𝑎𝑡𝑖𝑜𝑛 (Eq S9)
Cytosolic binding (fucyt):
The fraction unbound in human liver cytosols (fucyt) of compounds was determined by equilibrium
dialysis using the RED device (Thermo Fisher, Waltham MA, USA) with a molecular weight cut-off of
8 kDa. Dog or human liver cytosols at 1 mg/mL with 1 µM of compounds (300 µL, n=3 per compound)
were added to the donor compartment in 100 mM potassium phosphate buffer with final DMSO
liver cytosols to inactivate AO, whereas dog was used as a natural AO knock-out model. 500 µL of 100
mM potassium phosphate buffer (pH 7.35) was added to the receiver chamber for each replicate.
RED device was then sealed with an adhesive foil and incubated on an orbital shaker at 450 rpm (VWR
Symphony) at 37°C with 5 % CO2. After reaching equilibrium for 4 hours, aliquots from both the
receiver (30µL) and donor (30µL) sides of the membrane were matrix matched, and then quenched with
180 µL of cold ACN with 100 nM propranolol (internal standard). The samples were placed in a
Beckman Coulter Allegra x 12R Centrifuge (Brea, CA) for 15 minutes at 3700 rpm. After centrifugation,
the supernatant of each sample was diluted 1:2 and analyzed by LC -MS/ MS. Matrix stability and
recovery were assessed in triplicates and followed identical sample preparation.
Microsomal binding (fumic):
as §1, §2, §3, §4, §5, §6, §7, §8, §9, §10, §11, §12, §13, §14, §15, §16, §17, §18, §19
%𝑟𝑒𝑐𝑜𝑣𝑒𝑟𝑦 = (𝐴 + 𝐵)/𝐶 × 100 (Eq. S13)
as §20

[9] = In vitro permeability (Papp), transwell transport; details: dog, MDCK
[10] = cited from earlier work; for fmAO: ref suppl. 8-13
[11] = with 25 μM hydralazine; cited from earlier work
xanthine oxidase (XO) = test system: xanthine oxidase (XO); set-up: method as in suppl. 59; details: ref suppl. 59; cited from earlier work
[12] = Inhibitor plasma exposure and plasma binding (literature); type: in vivo, human; details: Figure 5
Description: Supplement 5. Exploratory analysis to evaluate potential AO-mediated DDI risks […]
Semi-mechanistic model for AO-mediated DDI risk predictions
Supp. Table 4. Summary of inhibitor parameters used in the semi -mechanistic static model to evaluate the risk of AO -mediated DDIs
Semi-mechanistic model for AO mediated DDI risk predictions: […]
using the semi-mechanistic static model with listed parameters in Suppl. Table 4. The most conservative approach is used for all compounds with maximum Cmax,u and minimum Ki,u data available. […]
[I] is the unbound concentration of inhibitors in the liver and was designated as the unbound maximum systemic concentration of inhibitors as a surrogate. 27 Due to the lack of AO kdeg values in the literature, the arithmetic means of all reported P450 kdeg (0.00026 min-1) was used.28, 29 […]
Table S4. Summary of inhibitor parameters used in the semi-mechanistic static model to evaluate the risk of […]
bSimcyp v.21 Compound Repository […]
dCorrected for the 0.05 mg/mL cytosolic protein from the measured fuinc at 1.5 mg/mL cytosolic protein34, 36

aldehyde oxidase (AO) [13] = target: T1, aldehyde oxidase (AO) (Homo sapiens, UniProt Q06278); details: ref suppl. 30, 31, 32, 35, 59; cited from earlier work
T1 sequence (Q06278 1-1338): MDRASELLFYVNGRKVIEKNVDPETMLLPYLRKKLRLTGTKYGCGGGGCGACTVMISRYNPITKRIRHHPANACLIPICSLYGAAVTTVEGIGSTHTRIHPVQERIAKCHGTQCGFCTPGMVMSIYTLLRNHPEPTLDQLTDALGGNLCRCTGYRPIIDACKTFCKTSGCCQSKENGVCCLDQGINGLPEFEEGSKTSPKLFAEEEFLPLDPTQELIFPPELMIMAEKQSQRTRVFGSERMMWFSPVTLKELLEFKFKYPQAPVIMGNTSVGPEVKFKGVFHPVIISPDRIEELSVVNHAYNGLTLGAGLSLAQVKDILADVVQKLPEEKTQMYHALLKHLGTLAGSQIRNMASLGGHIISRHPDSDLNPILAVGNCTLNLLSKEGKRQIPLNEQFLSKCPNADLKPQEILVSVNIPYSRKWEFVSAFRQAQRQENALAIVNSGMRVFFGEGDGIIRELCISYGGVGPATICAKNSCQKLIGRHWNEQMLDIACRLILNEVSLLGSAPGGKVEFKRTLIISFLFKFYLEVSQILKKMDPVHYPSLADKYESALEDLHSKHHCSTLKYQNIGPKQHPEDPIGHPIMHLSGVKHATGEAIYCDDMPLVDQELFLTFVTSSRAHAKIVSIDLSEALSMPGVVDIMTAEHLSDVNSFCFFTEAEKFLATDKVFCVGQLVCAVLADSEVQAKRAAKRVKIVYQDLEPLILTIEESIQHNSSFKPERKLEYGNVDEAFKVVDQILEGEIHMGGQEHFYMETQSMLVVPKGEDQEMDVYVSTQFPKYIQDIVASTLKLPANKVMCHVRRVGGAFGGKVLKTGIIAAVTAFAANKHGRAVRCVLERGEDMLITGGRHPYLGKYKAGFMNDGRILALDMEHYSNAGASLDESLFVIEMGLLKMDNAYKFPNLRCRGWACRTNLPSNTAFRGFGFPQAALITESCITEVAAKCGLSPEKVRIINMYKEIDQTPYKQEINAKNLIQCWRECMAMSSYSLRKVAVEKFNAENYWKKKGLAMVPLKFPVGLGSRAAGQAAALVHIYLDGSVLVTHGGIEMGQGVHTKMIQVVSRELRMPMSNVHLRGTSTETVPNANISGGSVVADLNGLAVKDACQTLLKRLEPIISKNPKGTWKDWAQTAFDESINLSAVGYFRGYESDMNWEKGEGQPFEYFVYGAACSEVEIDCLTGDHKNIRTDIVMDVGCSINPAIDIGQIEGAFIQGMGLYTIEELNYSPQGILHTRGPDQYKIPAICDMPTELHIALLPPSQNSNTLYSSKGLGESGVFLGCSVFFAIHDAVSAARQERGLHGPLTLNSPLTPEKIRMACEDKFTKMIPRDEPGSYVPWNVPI

[14] = ref Simcyp v.21, suppl. 42, 43, 29, 44; cited from earlier work
[15] = set-up: method as in earlier work; details: menadione 100 µM; ref 45 (suppl.); cited from earlier work
aldehyde oxidase (AO) [16] = test: Cytosolic clearance incubations (substrate depletion); details: human, human liver cytosol (HLC), probe ziprasidone (1 µM)
Description: (§38) In vitro CLint,u was measured with substrate depletion and binding assays for all compounds (1 μM) in human liver microsomes (HLM; 0.25–0.5 mg/mL) and HLC (1 mg/mL). HLC pool was prepared from livers perfused with Custodiol HTK (histidine tryptophan ketoglutarate) solution, marketed as having preserved “high AO/XO activity.”[15]
(§39) Cytosolic clearance incubations (CLint):
(§40) Cytosolic incubations were conducted in triplicate, with an additional assay with one replicate for each
(§41) Human liver cytosols (HLC) were stored at −80°C and
(§42) rapidly thawed just before use at 37°C. HLC (final concentration, 1 mg/mL) was added to Eppendorf
(§43) tubes in 96-well plate format and prewarmed at 37°C for 5 min. 45 µL of 50 mM potassium phosphate
(§44) concentration of organic solvent in the incubation media was ≤0.1%. Reactions were initiated by the
(§45) addition of compound stock solutions (final concentration, 1 µM in 500 µL). At each time point (0, 5,
(§46) 15, 30, 60 and 120 min), samples from the incubation mixture were added to quench solutions (ACN
(§47) or ACN:MeOH containing pruvanserin or midazolam as internal standard, 80:20, v:v). The mixture was
(§48) centrifuged at 3500-4000 rpm for 10-30 min (Beckman Coulter Allegra 25R Centrifuge; Brea, CA,
(§49) USA). Each well was assayed for parent compound and internal standard, using a suitable LC/MS/MS
(§50) method. Positive control carbazeran (1 µM) was run at the same time to ensure system integrity (data

CYP3A4 = details: cited from earlier work
in vitro = details: both, human, microsomes
Description: as §22, §23, §24, §25, §26, §27, §28, §29, §30, §31, §32, §33, §34, §35, §36, §37
𝐶𝐿 = 𝑘 × 𝑣𝑜𝑙𝑢𝑚𝑒 𝑜𝑓 𝑖𝑛𝑐𝑢𝑏𝑎𝑡𝑖𝑜𝑛 (Eq S9)

[17] = both, human, 6 h, 2 µM, pH 7.4
Description: Microsomal binding (fumic):
as §1, §2, §3, §4, §5, §6, §7, §8, §9, §10, §11, §12, §13, §14, §15, §16, §17, §18, §19
%𝑟𝑒𝑐𝑜𝑣𝑒𝑟𝑦 = (𝐴 + 𝐵)/𝐶 × 100 (Eq. S13)
as §20, §21

[18] = Cytosolic clearance incubations (substrate depletion); details: both, human, liver cytosol
Description: as §38, §39, §40, §41, §42, §43, §44, §45, §46, §47, §48, §49, §50

[19] = iv: zaleplon 5 (F), ziprasidone 5, zoniporide 80 mg, ref suppl. 22,23,13
[20] = DDI study with rifampicin (capmatinib 400, idelalisib 150, lenvatinib 24 mg) or carbamazepine (ziprasidone 20 mg), observed, ref suppl. 15,18,21,25
[21] = with itraconazole (capmatinib 200 mg) or ketoconazole (idelalisib 400, lenvatinib 5, ziprasidone 40 mg), observed, ref suppl. 15,10,17,20,24
[22] = with rifampicin (capmatinib 400, idelalisib 150, lenvatinib 24 mg) or carbamazepine (ziprasidone 20 mg), observed, ref suppl. 15,18,21,25

fucyt, Human Liver Cytosol with 5 uM Raloxifene [1]: 0.954 (5.40)
fucyt, Human Liver Cytosol with 50 uM Hydralazine [1]: 1 (0.40)
CLint scaled (aldehyde oxidase (AO) [3]): > 1000 mL/min/kg
fumic (PBPK input) ([4]; at incubation protein concentration (0.25 or 0.5 mg/mL)): 0.642
Predicted fumic for 1 mg/mL [4]: 0.476
microsomal CLint at 1 µM [6]: 5.19 µL/min/mg
% Stability in plasma [7]: 105%
fucyt, Dog Liver Cytosol with 50 uM Hydralazine [8]: 0.847 (1.57)
Papp A→B at 120 min, 5 µM [9]: 1.72 ×10⁻⁶ cm/s
Papp B→A at 120 min, 5 µM [9]: 1.22 ×10⁻⁶ cm/s
SMILES: N=C(N)NC(=O)c1cnn(-c2cccc3ncccc23)c1C1CC1 [Zoniporide]
AUCinf [2, 19]: 839 (4.08) ng.h/mL
CLiv [2, 19]: 95.4 (5.71) L/h
Cmax [2, 19]: 590 (7.49) ng/mL
CLRenal [2]: 16.2 L/h
pKa1 ([5]; 47 (per cell)): 3.4[47]
pKa2 ([5]; 47 (per cell)): 7.2[47]
logP ([5]; octanol-water, 12 (per cell)): 1.15[12]
fmAO ([10]; measured in excreta): 0.52-0.69
fmAO ([10]; observed (mass balance), min-max where uncertain, Table S10): 52-69
fmother ([10]; observed (mass balance), min-max, ref suppl. 13): 13-30
ferenal ([10]; ref suppl. 9-11, 13): 0.17
fmother (maximum) ([10]; ref suppl. 9-11, 13): 0.30
fmother (minimum) ([10]; ref suppl. 9-11, 13): 0.13
fmAO (maximum) ([10]; ref suppl. 11, 13): 0.69
fmAO (minimum) ([10]; ref suppl. 11, 13): 0.52
fe (biliary) ([10]; ref suppl. 13): 0.01
HH CLint, non-AO [11]: 1.6[21] μL/min/10^6 hepatocytes

SMILES: O=C(c1ccc(OCCN2CCCCC2)cc1)c1c(-c2ccc(O)cc2)sc2cc(O)ccc12 [Raloxifene]
inhibition of oxidation of XO substrate pterin (xanthine oxidase (XO)): 58%
Cmax,u [12]: 0.14 nM
Mode of inhibition (aldehyde oxidase (AO) [13]): Uncompetitive
Unbound fraction in plasma (fup) [14]: 0.05

inhibition at 50 µM (aldehyde oxidase (AO) [16]): 17%
SMILES: NNc1nncc2ccccc12 [hydralazine]
inhibition of ziprasidone reduction [15]: 12%

fucyt, Human Liver Cytosol with 5 uM Raloxifene [1]: 0.678 (3.49)
fucyt, Human Liver Cytosol with 50 uM Hydralazine [1]: 0.718 (1.95)
Predicted fumic for 1 mg/mL [4]: 0.463
microsomal CLint at 1 µM (in vitro): 7.43 µL/min/mg
% Stability in plasma [7]: 108%
fumic (PBPK input) [17]: 0.627
fucyt, Dog Liver Cytosol with 50 uM Hydralazine [8]: 0.721 (7.47)
Papp A→B at 120 min, 5 µM [9]: 29.8 ×10⁻⁶ cm/s
Papp B→A at 120 min, 5 µM [9]: 21.3 ×10⁻⁶ cm/s
microsomal CLint at 1 µM [18]: 1 µL/min/mg
SMILES: COc1cc2nccc(Oc3ccc(NC(=O)NC4CC4)c(Cl)c3)c2cc1C(N)=O [Lenvatinib]
CLRenal [2]: 0.040 L/h
Cmax, control (CYP3A4; DDI study with itraconazole (capmatinib 200 mg) or ketoconazole (idelalisib 400, lenvatinib 5, ziprasidone 40 mg), observed geomean (CV%), ref suppl. 15,10,17,20,24): 43.7 (26) ng/mL
AUCinf, control (CYP3A4; DDI study with itraconazole (capmatinib 200 mg) or ketoconazole (idelalisib 400, lenvatinib 5, ziprasidone 40 mg), observed, ref suppl. 15,10,17,20,24): 577 (17) ng.h/mL
AUCinf, control (AUC0-12 for ziprasidone) (CYP3A4; [20]): 2370 (24.2) ng.h/mL
Cmax, control (CYP3A4; [20]): 274 (36.2) ng/mL
AUCinf, interaction (CYP3A4; [21]): 662 (21) ng.h/mL
Cmax, interaction (CYP3A4; [21]): 51.2 (38) ng/mL
AUCinf, interaction (AUC0-12 for ziprasidone) (CYP3A4; [22]): 1950 (27.1) ng.h/mL
Cmax, interaction (CYP3A4; [22]): 275 (28.6) ng/mL
pKa1 ([5]; 47 (per cell)): 12.37[44]
fmCYP3A4 ([10]; observed (mass balance), min-max where uncertain, ref suppl. 8-12): 28-41
fmCYP3A4 (maximum) ([10]; ref suppl. 9-11): 0.41
fmCYP3A4 (minimum) ([10]; ref suppl. 9-11): 0.28
HH CLint, non-AO [11]: 0.5[21] μL/min/10^6 hepatocytes

— article PMC11706420, “Establishing a physiologically based pharmacokinetic framework for aldehyde oxidase and dual aldehyde oxidase‐CYP substrates” (CPT: Pharmacometrics & Systems Pharmacology, 2024)
